Measured values published in patent US20210052600A1, “THERAPEUTIC AGENTS FOR STRESS URINARY INCONTINENCE AND INCOTINENCE OF FECES” (Takeda Pharmaceutical Company Limited, priority 2017, published 2021).
Like-named read-outs stand apart in the source and are kept apart here.

What was measured:
[1] = test system: urethral resistance increasing effect of Compound A′; assay: Influence of antagonists (SB 242084, methiothepin) on urethral resistance increasing effect of Compound A′ in rats; format: in vivo, rat; settings: mean ± SEM; for LPP Increase: Post minus Pre; for LPP Pre: before administration
Procedure: Ninety female rats of SD strain were used. […] Isoflurane inhalation was added during the surgery, if necessary. In the experiment with intrathecal administration, the dura mater was exposed by laminectomy and then partially opened by incision, through which a catheter (PE-10) filled with saline was then implanted at the level of the L6-S1 site, followed by the closing of the incision. After opening of the abdomen, a catheter (PE-90) was inserted into the bladder. In order to secure reduced urethral resistance, unilateral nerve to iliococcygeus and pubococcygeus muscles was transected. For intraduodenal administration, another catheter (PE-50) was inserted into the duodenum in advance. The abdominal muscle and skin were each closed with sutures. Two (right and left) sites of abdominal skin near the diaphragm were cut to expose abdominal muscle. The bladder was emptied through the catheter, followed by the injection of 0.2 to 0.3 mL of Evans blue solution. Change in intravesical pressure was recorded using the bladder catheter via a pressure transducer, an electric signal amplifier, and an analog-to-digital converter. While change in intravesical pressure was recorded, the presence or absence of fluid leakage from the urethral orifice was observed under the electrical stimulation of the exposed abdominal muscle using an electrical stimulator and an isolator. […] The peak of the intravesical pressure during the stimulation of the abdominal muscle was measured, and the lowest pressure at which the fluid leakage was observed among the trials was defined as LPP for the electrical abdominal muscle stimulation method. In order to examine whether the urethral resistance increasing effect of Compound A′ is based on its agonistic potency on 5-HT2C receptors, SB 242084, methiothepin, or a vehicle was intravenously administered, and Compound A′ or a vehicle was intraduodenally administered 5 minutes later. SB 242084 was dissolved in a mixed solution of N,N-dimethylacetamide and polyethylene glycol 400 (1:1) and administered at 0.03 mg/0.5 mL/kg, 0.1 mg/0.5 mL/kg and 0.3 mg/0.5 mL/kg. Methiothepin was dissolved in saline and administered at 0.03 mg/0.5 mL/kg. 0.1 mg/0.5 mL/kg and 0.3 mg/0.5 mL/kg. Compound A′ was suspended in 0.5% MC and administered at 3 mg/mL/kg. LPP was measured again 30 minutes after Compound A′ administration. In order to examine where Compound A′ works in the body to increase urethral resistance, the blocking of the effect of Compound A′ was confirmed by blocking the functions of Compound A′ by giving methiothepin at a particular site in the body. Particularly, in the experiment with intrathecal administration, methiothepin or a vehicle was intrathecally administered, and Compound A′ or a vehicle was intraduodenally administered 5 minutes later. Methiothepin was dissolved in saline and 20 μL of the obtained solution was administered. Compound A′ was suspended in 0.5% MC and administered at 3 mg/mL/kg. LPP was measured again 30 minutes after Compound A′ administration.
Regarding change in LPP before and after drug administration, the differences between the mean values of the Compound A′-treated and vehicle-treated groups were analyzed by the Student's t test or the Welch's test. In order to analyze the influence of the antagonists on the effect of Compound A′, the differences between the mean values of the SB 242084- or methiothepin- and Compound A′-administered group and the vehicle- and Compound A′-administered group were analyzed by the one-tailed Williams' test.

[2] = test system: anus-closing function increasing effect of Compound A′; assay: Influence of SB 242084 on Compound A′-induced rat anus-closing function increasing effect (Anal LPP); format: in vivo; settings: SB242084 0.3 mg/kg i.v. then Compound A′ 1 mg/kg i.v.; 5 minutes after Compound A′; n=9
Procedure: (§1) Eighteen female SD rats were used. After overnight fasting, rats were intraperitoneally administered with urethane for anesthesia, and isoflurane inhalation was added during surgery. The abdomen was incised to expose the rectum, and a small incision of the rectum was made. A polyethylene catheter (SP61, Natsume) was inserted into the rectum through the rectum incision, and the tip of the catheter was positioned around 5 mm from the anal orifice. The other end of the catheter was connected with a pressure transducer and an infusion pump via three-way stopcocks, and the change in pressure in the rectum was measured using the pressure transducer, an electric signal amplifier, and an analog-to-digital converter. For administrating drugs, a polyethylene catheter (SP45, Natsume) was inserted into the femoral vein after exposing the vein by small incision.
After recovery period from surgery, while saline was infused at a speed of 0.1 mL/sec into the rectum using an infusion pump, change in the measured pressure—was observed. […] The peak value of the pressure recorded in the rectum during the course of the procedures was defined as “an Anal LPP” in this Example. […] The Anal LPP was again measured in the same way 5 minutes after the administration with Compound A′. The difference in Anal LPP from the Pre value (increased amount of Anal LPP) was calculated. […]

[3] = test system: anus-closing functions; assay: Rat anus-closing functions (Anal LPP) measured by high speed infusion of saline into the rectum; format: in vivo; settings: 1 mg/kg i.v.; 5 minutes after administration; mean ± SEM
Excerpt: as §1, with “Thirty six female SD” for “Eighteen female SD”, “inhalation was further added during” for “inhalation was added during”
After recovery period from surgery, while saline was infused at a speed of 0.1 mL/sec into the rectum using an infusion pump, change in the measured pressure—was observed. The infusion was stopped when the leakage of the saline from the anal orifice was observed. In the procedure, sudden decrease in the pressure was observed during the infusion with the leakage of saline from the anal orifice. The peak value of the pressure recorded in the rectum during the course of the procedures was defined as “an Anal LPP” in this Example. […] The Anal LPP was again measured in the same way 5 minutes after drug administration. The difference in Anal LPP from the Pre value (increased amount of Anal LPP) was calculated. Regarding change in Anal LPP before and after drug administration, the differences between the mean values of the drug-treated and vehicle-treated groups were analyzed by the one-tailed Williams' test or Student's t-test.

[4] = cited from earlier work
[5] = cited from earlier work; remark: listed apart in the source
[6] = test system: urethral resistance; assay: Rat urethral resistance (LPP) measured by high speed infusion of saline into the bladder; format: in vivo; settings: for LPP Post / LPP Increase / LPP Pre: Table 8, mean ± SEM; for LPP Post: 30 minutes after administration; for LPP Increase: Post minus Pre; for LPP Pre: before administration
Excerpt: The rats were anesthetized with isoflurane. Their spinal cord was transected at the T8-T9 (the eighth thoracic cord—the ninth thoracic cord) level. After opening of the bladder dome, two polyethylene tubes (PE-100) were inserted into the bladder. The incised portion of the bladder was closed with sutures, and the other incisions were also closed. The rats were placed in Bollman cages. The catheter for intravesical pressure measurement was connected to a pressure transducer, while the catheter for saline filling was connected to a syringe filled with Evans Blue-dyed saline. Change in intravesical pressure was recorded using the pressure transducer via an electric signal amplifier and an analog-to-digital converter. After recovery of the animals from anesthesia, the intravesical pressure measurement was started, and saline was infused at a speed of 0.1 mL/sec into the bladder using an infusion pump. The infusion was stopped when the leakage of the saline from the urethral orifice was observed. Immediately thereafter, the bladder was emptied by releasing the pressure. In this operation, the peak of recorded intravesical pressure during the saline infusion was used as LPP in this Example. This measurement was repeated, and the average LPP from the last three measurements was used as the LPP value of the trial. The mean from 2 such trials was used as a Pre value. 0.5% MC was used as the vehicle. […] The difference in LPP from the Pre value (increased amount of LPP) was calculated. Regarding change in LPP before and after drug administration, the differences between the mean values of the drug-treated and vehicle-treated groups were analyzed by the one-tailed Williams' test.

[7] = Body weight of obese rats (DIO-F344) under continuous subcutaneous administration and effective plasma concentration; format: in vivo, rat; settings: for Change in body weight (% change): mean ± SEM
Procedure: Forty male DIO-F344 rats bred with high fat diet (42 kcal % fat) were used. On the day before surgery, the rats were grouped on the basis of their body weight. Compound A′ and Compound B′ were each dissolved in saline. Osmotic pumps filled with the Compound A′ or Compound B′ solution were subcutaneously implanted in the rats under isoflurane anesthesia. The body weight just after surgery was used as a Pre value, and the body weight was measured every day until 14 days after surgery. Regarding the averages in the body weight on Day 14, the difference in the mean averages of the drug-treated group and the vehicle-treated group was analyzed by the one-tailed Williams' test.
The average Day 14 plasma concentration from the values of each rat measured in the morning and afternoon was used as a plasma concentration for the animal. The rate of change in body weight was calculated from the values measured just after and 14 days after osmotic pump implantation. The rate (average rate) of change of the vehicle group was subtracted from that of each drug-administered rat to plot the plasma concentration and the change in body weight. The plasma concentration at which the drug lowered the body weight by 3.8% was calculated by linear regression analysis.

[8] = SB 242084 0.03 mg/kg i.v. + Compound A′ 3 mg/kg i.d.
[9] = SB 242084 0.1 mg/kg i.v. + Compound A′ 3 mg/kg i.d.
[10] = SB 242084 0.3 mg/kg i.v. + Compound A′ 0 mg/kg i.d.
[11] = SB 242084 0.3 mg/kg i.v. + Compound A′ 3 mg/kg i.d.

Cc1cc2c(cc1Cl)N(C(=O)Nc1ccc(Oc3cccnc3C)nc1)CC2 [SB 242084]
LPP Post ([1]; SB 242084 0.03 mg/kg i.v. + Compound A′ 3 mg/kg i.d., 30 minutes after Compound A′): 73.9 ± 8.7 cmH2O | LPP Increase [1, 8]: 29.9 ± 8.4 cmH2O | LPP Pre [1, 8]: 44.0 ± 7.4 cmH2O | LPP Post ([1]; SB 242084 0.1 mg/kg i.v. + Compound A′ 3 mg/kg i.d., 30 minutes after Compound A′): 57.6 ± 12.2 cmH2O | LPP Increase [1, 9]: 12.6 ± 6.3 cmH2O | LPP Pre [1, 9]: 45.0 ± 6.7 cmH2O | LPP Post ([1]; SB 242084 0.3 mg/kg i.v. + Compound A′ 0 mg/kg i.d., 30 minutes after i.d. administration): 49.3 ± 8.7 cmH2O | LPP Increase [1, 10]: 3.4 ± 4.6 cmH2O | LPP Pre [1, 10]: 45.9 ± 5.4 cmH2O | LPP Post ([1]; SB 242084 0.3 mg/kg i.v. + Compound A′ 3 mg/kg i.d., 30 minutes after Compound A′): 48.0 ± 6.9 cmH2O | LPP Increase [1, 11]: 3.8 ± 4.4 cmH2O | LPP Pre [1, 11]: 44.3 ± 7.0 cmH2O | Anal LPP Increase [2]: -2.6±4.1 cmH2O

C[C@H]1CNCCc2ccc(Cl)cc21 [Compound B′, (R)-8-chloro-1-methyl-2,3,4,5-tetrahydro-1H-3-benzazepine]
Anal LPP Increase [3]: 13.8 ± 5.7 cmH2O | patients with adverse events ([4]; 10 mg bid group): 57.9% | subjects with headache ([4]; 10 mg bid group): 32.5% | subjects with nausea ([4]; 10 mg bid group): 8.8% | difference of body weight loss from placebo ([4]; 10 mg once daily (QD) (Blossom trial)): 2.6% | weight loss, difference from placebo group ([4]; obese patients, 10 mg twice daily (Blossom trial)): 3.8% | half-life in blood ([5]; after a single dose of 10 mg): 11.1 h | maximum blood concentration ([5]; after a single dose of 10 mg): 46.0 ng/mL | maximum blood concentration ([5]; immediate release formulation 10 mg once daily (Blossom trial)): 40 ng/mL | maximum blood concentration (Cmax) ([5]; immediate release formulation 10 mg twice daily (Blossom trial)): 56 ng/mL | LPP Post ([6]; 1 mg/kg p.o.): 77.0 ± 3.6 cm H2O | LPP Increase ([6]; 1 mg/kg p.o.): 9.0 ± 1.9 cm H2O | LPP Pre ([6]; 1 mg/kg p.o.): 67.9 ± 2.5 cm H2O | LPP Post ([6]; 2.5 mg/kg p.o.): 88.1 ± 3.5 cm H2O | LPP Increase ([6]; 2.5 mg/kg p.o.): 19.6 ± 1.7 cm H2O | LPP Pre ([6]; 2.5 mg/kg p.o.): 68.5 ± 3.8 cm H2O | LPP Post ([6]; 5 mg/kg p.o.): 85.4 ±4.1 cm H2O | LPP Increase ([6]; 5 mg/kg p.o.): 25.1 ± 2.7 cm H2O | LPP Pre ([6]; 5 mg/kg p.o.): 60.2 ± 5.1 cm H2O | LPP10, the dose that increases LPP by 10 cm H2O ([6]; oral administration, high speed saline infusion method): 1.2 mg/kg | Change in body weight (% change) ([7]; 0.45 mg/animal/day s.c. osmotic pump, day 3): −0.9 ± 0.2 % change | Change in body weight (% change) ([7]; 0.45 mg/animal/day s.c. osmotic pump, day 7): −1.4 ± 0.5 % change | Change in body weight (% change) ([7]; 0.45 mg/animal/day s.c. osmotic pump, day 10): −3.3 ± 0.4 % change | Change in body weight (% change) ([7]; 0.45 mg/animal/day s.c. osmotic pump, day 14): −3.7 ± 0.6 % change | Change in body weight (% change) ([7]; 1.35 mg/animal/day s.c. osmotic pump, day 3): −1.4 ± 0.3 % change | Change in body weight (% change) ([7]; 1.35 mg/animal/day s.c. osmotic pump, day 7): −2.5 ± 0.5 % change | Change in body weight (% change) ([7]; 1.35 mg/animal/day s.c. osmotic pump, day 10): −4.6 ± 0.3 % change | Change in body weight (% change) ([7]; 1.35 mg/animal/day s.c. osmotic pump, day 14): −5.4 ± 0.2 % change | Change in body weight (% change) ([7]; 4.5 mg/animal/day s.c. osmotic pump, day 3): −3.1 ± 0.6 % change | Change in body weight (% change) ([7]; 4.5 mg/animal/day s.c. osmotic pump, day 7): −4.8 ± 0.9 % change | Change in body weight (% change) ([7]; 4.5 mg/animal/day s.c. osmotic pump, day 10): −7.1 ± 0.7 % change | Change in body weight (% change) ([7]; 4.5 mg/animal/day s.c. osmotic pump, day 14): −8.6 ± 1.0 % change | plasma concentration at which the drug lowered the body weight by 3.8% ([7]; DIO-F344 rats, day 14, vehicle-subtracted, linear regression analysis): 140 ng/mL
